{"source": "ChEMBL document CHEMBL1139911", "about": "“4-substituted indazoles as new inhibitors of neuronal nitric oxide synthase” (Bioorg Med Chem Lett, 2007)", "key": {"Nitric oxide synthase 1": {"target": "Nitric oxide synthase 1 (Rattus norvegicus, UniProt P29476)", "sequence (P29476 whole entry)": "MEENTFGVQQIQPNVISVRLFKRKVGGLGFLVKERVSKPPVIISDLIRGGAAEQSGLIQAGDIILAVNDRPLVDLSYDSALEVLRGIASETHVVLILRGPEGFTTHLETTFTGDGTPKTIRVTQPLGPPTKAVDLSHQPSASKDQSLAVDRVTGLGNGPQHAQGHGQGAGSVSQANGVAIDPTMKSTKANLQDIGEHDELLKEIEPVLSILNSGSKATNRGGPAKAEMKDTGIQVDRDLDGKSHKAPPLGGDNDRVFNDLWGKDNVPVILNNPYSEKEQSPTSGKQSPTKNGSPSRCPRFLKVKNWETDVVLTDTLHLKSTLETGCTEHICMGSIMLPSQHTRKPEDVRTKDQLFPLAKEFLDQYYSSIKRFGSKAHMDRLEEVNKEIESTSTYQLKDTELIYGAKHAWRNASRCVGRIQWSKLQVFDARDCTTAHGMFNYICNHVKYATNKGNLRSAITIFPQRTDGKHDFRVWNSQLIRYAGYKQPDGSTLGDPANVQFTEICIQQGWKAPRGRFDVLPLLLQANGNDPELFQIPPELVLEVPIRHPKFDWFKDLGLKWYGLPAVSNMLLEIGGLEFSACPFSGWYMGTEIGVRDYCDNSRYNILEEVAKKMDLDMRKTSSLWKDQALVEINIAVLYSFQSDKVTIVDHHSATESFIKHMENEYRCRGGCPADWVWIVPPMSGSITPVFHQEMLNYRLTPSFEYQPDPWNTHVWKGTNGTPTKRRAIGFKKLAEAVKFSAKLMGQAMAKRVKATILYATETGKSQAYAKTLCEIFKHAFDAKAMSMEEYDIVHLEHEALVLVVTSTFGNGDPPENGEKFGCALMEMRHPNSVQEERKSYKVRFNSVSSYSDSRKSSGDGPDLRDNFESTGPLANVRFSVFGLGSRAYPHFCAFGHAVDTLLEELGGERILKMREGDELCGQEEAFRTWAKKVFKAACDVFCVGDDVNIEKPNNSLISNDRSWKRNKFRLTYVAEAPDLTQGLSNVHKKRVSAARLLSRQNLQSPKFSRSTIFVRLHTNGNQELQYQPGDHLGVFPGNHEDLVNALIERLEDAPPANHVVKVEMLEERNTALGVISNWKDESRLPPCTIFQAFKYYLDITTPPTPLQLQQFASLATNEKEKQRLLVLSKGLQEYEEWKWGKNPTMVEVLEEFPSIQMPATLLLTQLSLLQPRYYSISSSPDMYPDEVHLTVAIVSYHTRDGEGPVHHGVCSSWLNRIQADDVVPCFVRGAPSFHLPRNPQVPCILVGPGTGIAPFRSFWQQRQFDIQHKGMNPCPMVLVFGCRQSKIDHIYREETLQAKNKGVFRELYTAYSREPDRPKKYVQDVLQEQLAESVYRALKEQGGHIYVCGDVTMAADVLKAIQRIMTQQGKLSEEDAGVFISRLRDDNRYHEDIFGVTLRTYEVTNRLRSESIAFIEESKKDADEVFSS", "assay": "Inhibition of rat neuronal NOS"}, "Mus musculus [1]": {"tested_on": "Mus musculus", "assay": "Antinociceptive effect in mouse assessed as number of writhes for 10 mins at 50 mg/kg, ip", "assay_type": "functional", "conditions": "route intraperitoneal"}, "Mus musculus [2]": {"tested_on": "Mus musculus", "assay": "Antinociceptive effect in acetic acid-induced mouse assessed as number of writhes for 10 mins at 50 mg/kg, ip", "assay_type": "functional", "conditions": "route intraperitoneal"}, "Mus musculus [3]": {"tested_on": "Mus musculus", "assay": "Reversal of antinociceptive effect in L-arginine pretreated mouse assessed as number or writhes for 10 mins at 50 mg/kg, ip", "assay_type": "functional", "conditions": "route intraperitoneal"}, "Mus musculus [4]": {"tested_on": "Mus musculus", "assay": "Antinociceptive effect in acetic acid-induced mouse assessed as number of writhes for 10 mins at 25 mg/kg, ip", "assay_type": "functional", "conditions": "route intraperitoneal"}, "Mus musculus [5]": {"tested_on": "Mus musculus", "assay": "Antinociceptive effect in acetic acid-induced mouse assessed as number of writhes for 10 mins at 12.5 mg/kg, ip", "assay_type": "functional", "conditions": "route intraperitoneal"}}}
{"smiles": "Clc1ccc2cn[nH]c2c1", "values": [{"measurement": "IC50", "setting": "Nitric oxide synthase 1", "result": 22, "unit": "µM"}]}
{"smiles": "N=C(N)NCCC[C@H](N)C(=O)O", "note": "[ARGININE]", "values": [{"measurement": "Activity", "setting": "Mus musculus [1]", "result": 22.9}]}
{"smiles": "O=[N+]([O-])c1cccc2cn[nH]c12", "note": "[7-NITROINDAZOLE]", "values": [{"measurement": "Activity", "setting": "Mus musculus [2]", "result": 6.8}]}
{"smiles": "Fc1ccc2cn[nH]c2c1", "values": [{"measurement": "IC50", "setting": "Nitric oxide synthase 1", "result": "> 100", "unit": "µM"}]}
{"smiles": "Clc1cccc2cn[nH]c12", "values": [{"measurement": "IC50", "setting": "Nitric oxide synthase 1", "result": 4.2, "unit": "µM"}, {"measurement": "Activity", "setting": "Mus musculus [3]", "result": 23}, {"measurement": "Activity", "setting": "Mus musculus [1]", "result": 12.1}, {"measurement": "Activity", "setting": "Mus musculus [4]", "result": 12.9}, {"measurement": "Activity", "setting": "Mus musculus [5]", "result": 15}, {"measurement": "Activity", "setting": "Mus musculus [2]", "result": 7.9}]}
{"smiles": "Ic1ccc2[nH]ncc2c1", "values": [{"measurement": "IC50", "setting": "Nitric oxide synthase 1", "result": 37, "unit": "µM"}]}
{"smiles": "Clc1cccc2[nH]ncc12", "values": [{"measurement": "IC50", "setting": "Nitric oxide synthase 1", "result": 44.3, "unit": "µM"}]}
{"smiles": "Ic1cccc2[nH]ncc12", "values": [{"measurement": "IC50", "setting": "Nitric oxide synthase 1", "result": 17, "unit": "µM"}]}
{"smiles": "Clc1ccc2[nH]ncc2c1", "values": [{"measurement": "IC50", "setting": "Nitric oxide synthase 1", "result": 59.3, "unit": "µM"}]}
{"smiles": "Brc1cccc2[nH]ncc12", "values": [{"measurement": "IC50", "setting": "Nitric oxide synthase 1", "result": 2.4, "unit": "µM"}, {"measurement": "Activity", "setting": "Mus musculus [3]", "result": 24.3}, {"measurement": "Activity", "setting": "Mus musculus [1]", "result": 10.8}, {"measurement": "Activity", "setting": "Mus musculus [4]", "result": 8.8}, {"measurement": "Activity", "setting": "Mus musculus [5]", "result": 11}, {"measurement": "Activity", "setting": "Mus musculus [2]", "result": 9.3}]}
{"smiles": "Brc1ccc2cn[nH]c2c1", "values": [{"measurement": "IC50", "setting": "Nitric oxide synthase 1", "result": 4.3, "unit": "µM"}]}
{"smiles": "Fc1cccc2[nH]ncc12", "values": [{"measurement": "IC50", "setting": "Nitric oxide synthase 1", "result": "> 100", "unit": "µM"}]}
{"smiles": "Brc1ccc2[nH]ncc2c1", "values": [{"measurement": "IC50", "setting": "Nitric oxide synthase 1", "result": 72, "unit": "µM"}]}
{"smiles": "Brc1cccc2cn[nH]c12", "values": [{"measurement": "IC50", "setting": "Nitric oxide synthase 1", "result": 14.3, "unit": "µM"}]}
{"smiles": "Fc1ccc2[nH]ncc2c1", "values": [{"measurement": "IC50", "setting": "Nitric oxide synthase 1", "result": "> 100", "unit": "µM"}]}
{"smiles": "O=[N+]([O-])c1cccc2[nH]ncc12", "values": [{"measurement": "Activity", "setting": "Mus musculus [3]", "result": 23.8}, {"measurement": "Activity", "setting": "Mus musculus [1]", "result": 11.8}, {"measurement": "Activity", "setting": "Mus musculus [4]", "result": 9.9}, {"measurement": "Activity", "setting": "Mus musculus [5]", "result": 18}, {"measurement": "Activity", "setting": "Mus musculus [2]", "result": 9.3}]}
{"smiles": "CC(=O)Oc1ccccc1C(=O)O", "note": "[ASPIRIN]", "values": [{"measurement": "Activity", "setting": "Mus musculus [5]", "result": 7.6}]}
